Experiments:
[1] = biological target: T1, human MAO-B (Homo sapiens, UniProt P27338); assay: MAO-B radioligand binding assay ([3H]-DMAB or [3H] 5-Fluoro-2-(1-methyl-1H-indazol-5-yl)-oxazolo[5,4-b]pyridine); details: membrane fractions from insect cells expressing human MAO-B; radioligand 8-10 nM
T1 construct: purchased BD Biosciences Discovery Labware, Woburn Mass; (BD Supersomes Enzymes); host or cells: insect cells
T1 sequence (P27338 1-520): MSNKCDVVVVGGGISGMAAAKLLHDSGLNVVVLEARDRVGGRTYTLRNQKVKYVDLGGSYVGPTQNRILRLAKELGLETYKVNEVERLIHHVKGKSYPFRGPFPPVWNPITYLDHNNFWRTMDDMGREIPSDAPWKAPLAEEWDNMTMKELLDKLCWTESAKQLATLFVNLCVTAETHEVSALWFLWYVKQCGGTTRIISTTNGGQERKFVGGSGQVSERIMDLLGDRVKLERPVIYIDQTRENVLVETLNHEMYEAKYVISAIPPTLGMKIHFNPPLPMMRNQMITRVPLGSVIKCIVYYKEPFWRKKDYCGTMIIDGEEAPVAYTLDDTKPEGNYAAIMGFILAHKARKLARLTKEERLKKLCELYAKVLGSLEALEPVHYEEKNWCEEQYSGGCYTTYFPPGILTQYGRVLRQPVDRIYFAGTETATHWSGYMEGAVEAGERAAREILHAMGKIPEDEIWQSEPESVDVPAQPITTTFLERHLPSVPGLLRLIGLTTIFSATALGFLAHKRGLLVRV
Protocol: Radioligand binding assay: MAO-B containing membrane fractions prepared from insect cells expressing human MAO-B (BD Supersomes Enzymes, BD Biosciences Discovery Labware, Woburn Mass.) were used as a source of MAO-B. [^3H]-DMAB or [^3H] 5-Fluoro-2-(1-methyl-1H-indazol-5-yl)-oxazolo[5,4-b]pyridine were synthesized at a specific activity of ˜80 Ci/mmol. The final concentration of radioligand for tissue homogenate binding assay was 8-10 nM. MAO-B membrane fractions were diluted with phosphate buffered saline (PBS) to 0.25 mg/mL from original 5 mg/mL volume and 200 μl was used in assay for a final mass of 50 μg/assay tube. Unlabeled test compounds were dissolved in dimethylsulfoxide (DMSO) at 1 mM. Dilution of test compound to various concentrations was made with PBS containing 2% DMSO. Total binding was defined in the absence of competing compound, and non-displaceable binding was determined in the presence of 1 μM unlabeled self block. Compound dilutions (10×) were added into the assay tube (25 μL each per tube, separately) containing 200 μL diluted MAO-B membrane fraction, and the tubes were pre-incubated at room temperature for 10 minutes. […] Filters were punched into scintillation vials and counted in 2 mL Ultima Gold on Perkin Elmer Tri-Carb 2900TR for 1 minute. […]

[2] = biological target: T1, human MAO-B; assay: Monoamine oxidase B functional assay (kynuramine deamination, fluorescence); format: biochemical; details: membrane fractions from insect cells expressing human MAO-B; kynuramine substrate
Protocol: Functional assay: MAO-B containing membrane fractions prepared from insect cells expressing human MAO-B (BD Supersomes Enzymes, BD Biosciences Discovery Labware, Woburn Mass.) were used as a source of MAO-B. Assays were conducted in 96-well plates in a final volume of 200 μL. The assay buffer was 0.1 M potassium phosphate (pH 7.4). The assay system consisted of three mixes: a) inhibitor dilution mix, which was the assay buffer, b) substrate/buffer/control insect cell protein mix: 4× substrate-80 μM kynuramine and 4× control insect cell protein, and c) enzyme/buffer mix: 4× concentrate of MAO-B prepared in assay buffer. The final MAO-B concentration was 0.015 mg/mL. The final total, normalized protein concentration, using control insect protein, was 0.06 mg/mL. Test compounds were serial diluted 3-fold in the inhibitor dilution mix directly in the 96-well plate (total final volume of 100 μL). Fifty μL of the substrate/buffer mix was added to each well. The 96-well plate, containing test compound and MAO substrate (150 μL total volume), was preincubated to 37° C. The reaction was initiated with 50 μL of enzyme/buffer mix. […] Product formation was quantified by comparing the fluorescence emission of the samples to that of known amounts of authentic metabolite standard, 4-hydroxyquinoline, the product formed from kynuramine deamination. […]

| IC50 [1] [nM] | Ki [2] [nM] | Compound |
| --- | --- | --- |
| 3.7 |  | Cn1ccc2cc(-c3nc4ccc(F)nc4s3)cnc21 |
|  | 18 | Cn1ccc2cc(-c3nc4ccc(F)nc4o3)cnc21 |
| 31 |  | CN(C)c1ccc(-c2nc3ccc(F)nc3o2)cc1 |
